Measurements taken from patent US8901120B2, “Substituted N-phenylpyrimidin-2-amine analogs as inhibitors of the Axl kinase” (University of Utah Research Foundation, priority 2011, dated 2014).
Where two headings read alike, the source gives them in different places.

Tests used:
[1] = target: T1, recombinant human Axl kinase (catalytic domain, amino acids 473-894) (Homo sapiens, UniProt P30530); experiment: Axl kinase activity assay (TR-FRET, fluorescein poly-GT substrate); type: biochemical
T1 construct: catalytic domain, amino acids 473-894; purchased Invitrogen Corporation, Carlsbad, Calif
T1 sequence (P30530 473-894): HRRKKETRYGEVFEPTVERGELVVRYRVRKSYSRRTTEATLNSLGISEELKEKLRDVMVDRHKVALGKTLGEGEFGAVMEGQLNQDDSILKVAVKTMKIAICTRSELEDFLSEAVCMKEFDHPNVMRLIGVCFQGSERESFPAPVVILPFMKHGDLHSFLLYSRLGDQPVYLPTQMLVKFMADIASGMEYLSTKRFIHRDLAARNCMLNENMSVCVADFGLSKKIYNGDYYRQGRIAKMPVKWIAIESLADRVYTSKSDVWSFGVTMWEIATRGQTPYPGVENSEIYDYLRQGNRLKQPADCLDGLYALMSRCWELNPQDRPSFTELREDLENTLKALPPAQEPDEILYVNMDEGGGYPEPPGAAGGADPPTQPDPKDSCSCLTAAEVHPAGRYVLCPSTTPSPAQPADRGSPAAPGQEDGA
Method: Test compounds were diluted to desired concentrations in kinase reaction buffer (50 mM HEPES pH 7.5, 10 mM MgCl2, 1 mM EGTA, 2 mM DTT, and 0.01% v/v Tween-20) and were briefly incubated with Axl kinase (Invitrogen Corporation, Carlsbad, Calif.). The Axl kinase used was recombinant human Axl kinase (catalytic domain, amino acids 473-894) with a histidine tag. The reaction was initiated by the addition of ATP and fluorescein-labeled poly-GT substrate (poly Glu:Tyr, 4:1 polymer; Invitrogen). Concentration of the various components in the assay (10 μl reaction volume) were: 1% DMSO, 93 ng/ml Axl kinase, 20 μM ATP, and 200 nM fluorescein poly-GT substrate. Following addition of ATP and fluorescein poly-GT substrate, incubation was for 60 min at room temperature, the enzyme reaction is stopped by addition of 10 μl terbium-labeled anti-phosphotyrosine PY20 antibody in EDTA-containing buffer. Final concentration of EDTA and antibody after addition to the reaction is 10 mM and 2 nM, respectively. The terbium conjugated antibody generates a time-resolved FRET signal with the fluorescein molecule (bound to the poly-GT substrate) when the substrate is phosphorylated. After one hour incubation at room temperature, fluorescence was measured with excitation of 320 nm and dual emission of 495 and 520 urn on an EnVision microplate reader (PerkinElmer). Signal is expressed in terms of a TR-FRET ratio (fluorescence intensity at 520 nm to 495 nm).
(§1) IC50 values are determined using GraphPad Prism 5 software. The data were entered as an X-Y plot into the software as percent inhibition for each concentration of the drug. The concentration values of the drug were log transformed and the nonlinear regression was carried out using the “sigmoidal dose-response (variable slope)” option within the GraphPad software to model the data and calculate IC50 values.

PL45 = experiment: Cell viability assay (ATP-Lite), PL45; type: cell-based; settings: Homo sapiens; PL45, 96 hours
Method: (§2) All cell lines were cultured in media as recommended by American Type Culture Collection (“ATCC”; supplemented with 10% fetal bovine serum (“FBS”) and 1% penicillin/streptomycin (100 IU/ml pencillin and 100 μg/ml streptomycin) at 37° C. and 5% CO2. The cell lines used in these studies included those indicated in Table II below.
(§3) For cell proliferation assays, 45 μl containing 1000 cells per well were seeded into solid white 384-well plates in appropriate cell growth media containing 10% FBS and incubated overnight at 37° C. and 5% CO2. The following day, test compounds were diluted in serum free growth media to 10× desired concentrations and 5 μl was added to each well. Combined compound and cells were incubated for 96 hours. Following incubation, 40 μl of ATP-Lite solution (PerkinElmer, Inc., Waltham, Massachussetts) was added to each well, incubated for an additional 10 minutes at room temperature and luminescence was measured on an EnVision microplate reader. Percent cell viability for test compounds was calculated by comparing treated wells to appropriate controls (e.g. vehicle treated) included on each plate.
as §1
(§4) The ability of compounds to inhibit the viability of cultured cells was determined using the cell viability assay described above. Activity data for representative compounds is shown below in Table IV for the compounds was tested in the indicated cell lines (PL-45, PANC-1, PSN-1, HepG2, and […]). IC50 values were determined as described above. If IC50 value is indicated as “n.d.”, it means that the compound was […] in the indicated cell line. The compound number corresponds to the numbering used in Table I.

PANC-1 = experiment: Cell viability assay (ATP-Lite), PANC-1; type: cell-based; settings: Homo sapiens; PANC-1, 96 hours
Method: as §2, §3, §1, §4

PSN-1 = experiment: Cell viability assay (ATP-Lite), PSN-1; type: cell-based; settings: Homo sapiens, PSN1; PSN-1, 96 hours
Method: as §2, §3, §1
The ability of compounds to inhibit the viability of cultured cells was determined using the cell viability assay described above. […] IC50 values were determined as described above. If IC50 value is indicated as “n.d.”, it means that the compound was […] in the indicated cell line. The compound number corresponds to the numbering used in Table I.

HepG2 = experiment: Cell viability assay (ATP-Lite), HepG2; type: cell-based; settings: Homo sapiens; HepG2, 96 hours
Method: as §2, §3, §1, §4

A549 = experiment: Cell viability assay (ATP-Lite), A549; type: cell-based; settings: Homo sapiens; A549, 96 hours
Method: as §2, §3, §1, §4

[2] = 20 μM ATP, 93 ng/ml Axl kinase, 60 min, read-out: IC50 (Axl kinase activity)

SMILES: CN1CCN(Cc2ccc(Nc3ncc(Cl)c(Nc4ccccc4S(=O)(=O)N4CCCC4)n3)cc2)CC1 [5-chloro-N2-(4-((4-methylpiperazin-1-yl)methyl)phenyl)-N4-(2-(pyrrolidin-1-ylsulfonyl)phenyl)pyrimidine-2,4-diamine]
- IC50 ([1]; tested in triplicate, FIG. 4A, read-out: IC50, inhibition of Axl activity): ~20 nM

SMILES: CN1CCN(Cc2ccc(Nc3ncc(Cl)c(Nc4ccccc4S(=O)(=O)N4CCCC4)n3)cc2)CC1 [Compound 1]
- IC50 [1, 2]: 20 nM
- IC50 (PL45): 47 nM
- IC50 (PANC-1): 34 nM
- IC50 (PSN-1): 2 nM
- IC50 (HepG2): 121 nM
- IC50 (A549): 2 nM

SMILES: CN1CCN(Cc2ccc(Nc3ncc(Cl)c(Nc4ccccc4C(=O)NC4CC4)n3)cc2)CC1 [Compound 2]
- IC50 [1, 2]: 32 nM
- IC50 (PL45): 3 nM
- IC50 (PANC-1): 303 nM
- IC50 (PSN-1): 64 nM
- IC50 (HepG2): 303 nM
- IC50 (A549): 3 nM

SMILES: CN1CCN(Cc2ccc(Nc3ncc(Cl)c(Nc4ccc(F)cc4S(=O)(=O)N4CCCC4)n3)cc2)CC1 [Compound 3]
- IC50 [1, 2]: 37 nM
- IC50 (PL45): 17 nM
- IC50 (PANC-1): 93 nM
- IC50 (PSN-1): 9 nM
- IC50 (HepG2): 43 nM
- IC50 (A549): 4 nM

SMILES: CN1CCN(Cc2ccc(Nc3ncc(Cl)c(Nc4ccccc4S(=O)(=O)N(C)C)n3)cc2)CC1 [Compound 4]
- IC50 (PL45): 48 nM
- IC50 (PANC-1): 38 nM
- IC50 (HepG2): 6 nM
- IC50 (A549): 8 nM

SMILES: CN1CCC(N(C)c2ccc(Nc3ncc(Cl)c(Nc4ccccc4S(=O)(=O)N(C)C)n3)cc2)CC1 [Compound 5]
- IC50 [1, 2]: 56 nM
- IC50 (PL45): 370 nM
- IC50 (PANC-1): 80 nM

SMILES: CN1CCN(Cc2ccc(Nc3ncc(Cl)c(Nc4ccccc4C(=O)N4CCCC4)n3)cc2)CC1 [Compound 6]
- IC50 [1, 2]: 61 nM
- IC50 (PL45): 14 nM
- IC50 (PANC-1): 96 nM
- IC50 (PSN-1): 21 nM
- IC50 (HepG2): 194 nM
- IC50 (A549): 7 nM

SMILES: CN1CCN(Cc2ccc(Nc3ncc(Cl)c(Nc4ccccc4C(=O)N(C)C)n3)cc2)CC1 [Compound 7]
- IC50 [1, 2]: 88 nM
- IC50 (PL45): 95 nM
- IC50 (PANC-1): 142 nM
- IC50 (PSN-1): 70 nM
- IC50 (HepG2): 57 nM
- IC50 (A549): 19 nM

SMILES: CN1CCN(Cc2ccc(Nc3ncc(Cl)c(-c4ccc(F)cc4S(=O)(=O)N(C)C)n3)cc2)CC1 [Compound 8]
- IC50 [1, 2]: 99 nM

SMILES: CN1CCN(Cc2ccc(Nc3ncc(Cl)c(-c4ccc(F)cc4S(=O)(=O)N4CCCC4)n3)cc2)CC1 [Compound 9]
- IC50 [1, 2]: 119 nM
- IC50 (PL45): 426 nM
- IC50 (PANC-1): 481 nM
- IC50 (PSN-1): 192 nM
- IC50 (HepG2): 527 nM
- IC50 (A549): 77 nM

SMILES: CN1CCN(Cc2ccc(Nc3ncc(Cl)c(Nc4ccc(F)cc4S(=O)(=O)N4CCOCC4)n3)cc2)CC1 [Compound 10]
- IC50 [1, 2]: 240 nM

SMILES: Cc1cnc(Nc2ccc(CN3CCN(C)CC3)cc2)nc1-c1ccc(C(C)(C)C#N)cc1 [Compound 11]
- IC50 [1, 2]: 289 nM
- IC50 (PL45): 8210 nM
- IC50 (PANC-1): 5780 nM
- IC50 (PSN-1): 2550 nM

SMILES: Cc1cnc(Nc2ccc(N(C)C3CCN(C)CC3)cc2)nc1-c1ccc(F)c(Cl)c1 [Compound 12]
- IC50 [1, 2]: 416 nM
- IC50 (PL45): 13700 nM
- IC50 (PANC-1): 10900 nM
- IC50 (PSN-1): 6710 nM

SMILES: Cc1cnc(Nc2ccc(CN3CCN(C)CC3)cc2)nc1-c1cccc(Cl)c1 [Compound 13]
- IC50 [1, 2]: 445 nM
- IC50 (PL45): 4820 nM
- IC50 (PANC-1): 7600 nM
- IC50 (PSN-1): 2660 nM

SMILES: Cc1cnc(Nc2ccc(CN3CCN(C)CC3)cc2)nc1-c1ccc(F)c(Cl)c1 [Compound 14]
- IC50 [1, 2]: 730 nM
- IC50 (PL45): 14400 nM
- IC50 (PANC-1): 7750 nM
- IC50 (PSN-1): 4270 nM

SMILES: CN1CCN(Cc2ccc(Nc3ncc(Cl)c(Nc4ccc(Cl)cc4S(=O)(=O)N4CCCC4)n3)cc2)CC1 [Compound 15]
- IC50 [1, 2]: 1080 nM

SMILES: CN1CCN(Cc2ccc(Nc3ncc(F)c(-c4ccc(F)cc4S(=O)(=O)N4CCCC4)n3)cc2)CC1 [Compound 16]
- IC50 [1, 2]: 1140 nM

SMILES: CN1CCN(Cc2ccc(Nc3ncc(Cl)c(Nc4ccc(O)cc4S(=O)(=O)N4CCCC4)n3)cc2)CC1 [Compound 17]
- IC50 [1, 2]: 1310 nM

SMILES: Cc1cnc(Nc2ccc(CN3CCN(C)CC3)cc2)nc1Oc1ccc(F)c(Cl)c1 [Compound 18]
- IC50 [1, 2]: 1400 nM

SMILES: COc1cccc(-c2nc(Nc3ccc(CN4CCN(C)CC4)cc3)ncc2C)c1 [Compound 19]
- IC50 [1, 2]: 1610 nM

SMILES: Cc1ccc(-c2nc(Nc3ccc(CN4CCN(C)CC4)cc3)ncc2C)cc1C#N [Compound 20]
- IC50 [1, 2]: 1830 nM

SMILES: Cc1cnc(Nc2ccc(CN3CCN(C)CC3)cc2)nc1-c1ccc(F)cc1 [Compound 21]
- IC50 [1, 2]: 1860 nM

SMILES: CC(=O)Nc1cccc(-c2nc(Nc3ccc(CN4CCN(C)CC4)cc3)ncc2C)c1 [Compound 22]
- IC50 [1, 2]: 2300 nM

SMILES: Cc1cnc(Nc2ccc(CN3CCN(C)CC3)cc2)nc1-c1cccc(S(C)(=O)=O)c1 [Compound 23]
- IC50 [1, 2]: 2910 nM

SMILES: Cc1cnc(Nc2ccc(CN3CCN(C)CC3)cc2)nc1-c1ccc(F)cc1S(=O)(=O)N1CCCC1 [Compound 24]
- IC50 [1, 2]: 2930 nM

SMILES: Cc1cnc(Nc2ccc(CN3CCN(C)CC3)cc2)nc1-c1cccc(OC(F)(F)F)c1 [Compound 25]
- IC50 [1, 2]: 3300 nM

SMILES: CN1CCN(Cc2ccc(Nc3ncc(C4CC4)c(-c4ccc(F)c(Cl)c4)n3)cc2)CC1 [Compound 26]
- IC50 [1, 2]: 3350 nM

SMILES: CN1CCN(Cc2ccc(Nc3ncc(Cl)c(N(C)c4ccc(F)cc4S(=O)(=O)N4CCCC4)n3)cc2)CC1 [Compound 27]
- IC50 [1, 2]: 3900 nM

SMILES: Cc1cnc(Nc2ccc(CN3CCN(C)CC3)cc2)nc1-c1cc(Cl)cc(C(F)(F)F)c1 [Compound 28]
- IC50 [1, 2]: 5140 nM

SMILES: CN1CCN(Cc2ccc(Nc3nc(N)cc(-c4ccc(F)c(Cl)c4)n3)cc2)CC1 [Compound 29]
- IC50 [1, 2]: 57200 nM

SMILES: Cc1cnc(Nc2ccc(CN3CCN(C)CC3)cc2)nc1Nc1ccc(F)c(Cl)c1 [Compound 30]
- IC50 [1, 2]: 62700 nM

SMILES: CN1CCN(Cc2ccc(Nc3ncc(C(F)(F)F)c(Nc4ccccc4C(=O)N(C)C)n3)cc2)CC1 [Compound 31]
- IC50 [1, 2]: > 100000 nM
